Measurements taken from patent US20220039395A1, “INSECT CONTROL AGENTS” (priority 2018, published 2022).
Numbered stars: 1 amine (or outer) side, 2 acyl side, 3 side chain; on linkers, the order of the positions; unused ones are H or OH. Peptide text beside a SMILES is read from it. * marks the point of attachment. X1 = Brc1ccc2c(c1)-c1cc(N*)ccc1C2; Suc = O=C(CCC(=O)[*:2])[*:1]

Key:
Type in all cases: in vivo
Myzus persicae [1] = assay: Feeding of aphids with peptides in artificial diet; life span and fecundity; settings: M. persicae on artificial diet containing the peptide; mean ± SE
Procedure: A standard artificial diet for M. persicae was produced as described in Van Emden (2009) and provided the basal diet to which neuropeptide analogues were added for screening purposes. Neuropeptide analogues were diluted individually in the artificial diet to a pre-determined recommended concentration as follows: 1895 (3.5×10^-5 M) and 2019 (2.0×10^-5 M). Feeding apparatus were constructed using a set-up developed by […] et al (2009). For this, a piece of Parafilm was stretched over a Plexiglas ring (h=4 cm, Ø=3 cm) and 100 μl of the artificial diet containing the desired neuropeptide analogue was pipette onto the Parafilm membrane. A second piece of Parafilm, stretched to 4 times the original thickness, was stretched over the original layer, sandwiching the artificial diet between two layers of Parafilm. A strip of Parafilm was wrapped around the circumference of the Plexiglas ring, sealing in the diet. A plastic ring (h=1.2 cm, Ø=3.4 cm) was subsequently placed over the Parafilm layer, creating a walled chamber in which to house test aphids in contact with the Parafilm layer containing the artificial diet. Finally, a small Petri dish (h=1 cm, Ø=3.6 cm), modified for ventilation with net cloth, was placed on top of each feeding apparatus to prevent aphid escape. To obtain aphids for use in experiments, reproducing anholocyclic adults were placed on individual excised leaves of Chinese cabbage at densities of 5 adults per leaf and allowed to reproduce for 24 h. The stem of each excised leaf was held within a 0.5 mL Eppendorf tube containing water via a punctured hole in the Eppendorf lid, and placed individually within a microcage (L=4 cm, Ø=9.5 cm). Following 24 h, adults were removed and resultant first instar nymphs (<1 day old and synchronised in age to within 24 h) retained. Nymphs were allowed to develop on the Chinese cabbage for 5 days. On day 5, (3rd instar) nymphs were transferred onto the artificial diet containing a neuropeptide analogue at densities of 1 per feeding chamber and monitored daily until death. Aphids were transferred to fresh artificial diet (containing neuropeptide analogue) every 5 days. Life history traits recorded include age at first reproduction, number of nymphs produced per 24 h period, and lifespan. From these parameters, lifetime fecundity and daily fecundity were calculated. Control groups were set up involving aphids reared on the host plant, an artificial diet without a neuropeptide analogue, and an artificial diet containing the native CAPA neuropeptide.

Myzus persicae [2] = assay: Topical application by spraying, air brush; settings: 750 μl, 1×10^−5M of each peptide in Tween 24 0.1%, counted 48 hours post spray
Procedure: (§1) Aphids were exposed to test peptides in the absence of additional external stress conditions.
(§2) Brassica rapa (Chinese cabbage; Wong Bok) were infested with 30 adult Myzus persicae aphids per plant. Aphids were left at least 2 hours to settle and begin feeding from the host plant.
Spraying took place inside an externally vented fume cupboard. […] To ensure spray tracking, all sprayed solutions had amaranth dye added, allowing the full surface of the plant to be evenly coated with the aerosolised compound.
The plants to be sprayed were placed inside a plastic disposal bag, inside the fume cupboard. This was used to control the area exposed to the aerosolised liquid, to avoid extensive spraying and cleaning inside the fume cupboard. The bag was further lined with absorbent paper towel to again help contain and control spray.
Each experiment had three controls:
i) no vehicle or peptide air spray only, negative control to assess effect of spraying on aphid ability to remain attached to the plant; ii) vehicle spray only (Tween 24 0.1%); and iii) Imidacloprid positive control (28.3 μM).
Imidacloprid was always applied last to prevent any possibility of stray pesticide being left inside the disposal bag and contaminating a test peptide applied plant.
Spray volumes for all solutions for this experiment 750 μl.
A clean air brush (ABEST AC06k30) was loaded with 750 μl of peptide solution diluted in […] 0.1% vehicle. For this experiment there were three test conditions: 1895 alone (1×10^−5M); 2129 alone (1×10^−5M); and a simultaneous co-application of 1895+2129 together (1×10^−5M of each peptide). During application, the air brush was held within the plastic bag and the compressor turned on. The air brush was then gently sprayed back and forth across the plant. […]
Post peptide application, each condition was placed into its own individual Bugdorm (Watkins and Doncaster, 44545), to prevent repulsed or displaced aphids moving from one condition to another. Numbers of alive and dead aphids on the plant were counted 48 hours post spray, and the presence of any fresh nymphs noted. […]

Myzus persicae [3] = assay: Topical application by spraying, Potter Spray Tower; settings: 3000 μl, 1×10^−5M of each peptide in ATPlus 0.1%, counted 48 hours post spray
Procedure: as §1, §2
Spraying took place inside a designated spray room. To ensure spray tracking, all sprayed solutions had amaranth dye added.
Potter Spray Tower (Burkard Manufacturing) was ‘primed’ by spraying 1000 μl of liquid coating the inside of the tower. Two controls were used:
i) vehicle spray only (Croda ATPlus UEP 100 LQ-(CQ) 0.1% v/v); and ii) Imidacloprid positive control (28.3 μM).
Imidacloprid was always applied last and via a second, separate, Potter Tower, to prevent any possibility of stray pesticide being left inside the tower and contaminating a test peptide-applied plant.
Spray volumes for all solutions were 3000 μl. The 6.9 mm spray head was loaded with 3000 μl of a 1×10^−5M peptide solution diluted in ATPlus 0.1%. After spraying was completed the plant was allowed to rest on the spray platform for 30 seconds to allow settling of the sprayed chemical.
For this experiment there were three test conditions: 1895 alone (1×10^−5M); 2129 alone (1×10^−5M); and a simultaneous co-application of 1895+2129 together (1×10^−5M of each peptide).
Post peptide application, each condition was placed into its own individual Bugdorm (Watkins and Doncaster, 44545), to prevent repulsed or displaced aphids moving from one condition to another. Numbers of alive and dead aphids on the plant were counted 48 hours post spray, and the presence of any fresh nymphs noted. Plants were watered prior to spraying but not afterwards to eliminate the possibility of drowning any aphids present or washing off the sprayed liquid.
Post spraying, the spray head was filled with over 3000 μl of 70% ethanol and sprayed until empty. The spray head was carefully removed and rinsed with 70% ethanol as some amaranth dye was observed on the spray head. […]

Compound | Age at 1st reproduction (Myzus persicae [1]) | Ave. daily fecundity (Myzus persicae [1]) | Days as reproducing adult (Myzus persicae [1]) | Life span (Myzus persicae [1]) | Lifetime fecundity (Myzus persicae [1]) | % Lethality (Myzus persicae [2]) | % Lethality (Myzus persicae [3])
CC[C@H](C)[C@H](NC(=O)[C@H](CCCNC(=N)N)NC(=O)[C@@H]1CCCN1C(=O)[C@@H](NC(=O)[C@H](C)NC(=O)CCC(=O)Nc1ccc2c(c1)-c1cc(Br)ccc1C2)[C@@H](C)O)C(N)=O [compound 2129, 2Abf-Suc-ATPRI-NH2] ({X1-Suc}-ATPRI-NH2) | 12.4 ± 0.7 days | 1.2±0.1 nymphs | 7.17 ± 1.5 | 21.0 ± 2.3 days | 8.8 ± 2.0 nymphs | 30% | 32%
2Abf-Suc-FGPRL-NH2 [compound 1895] | 11.5 ± 0.5 days | 1.1±0.1 nymphs | 5.8 ± 1.8 | 19.8 ± 2.5 days | 6.4±2.0 nymphs | 27% | 34%
